Experimental data reported in patent US20250296955A1, “PIN1 TARGETING COMPOUNDS AND DEGRADERS AND METHODS THEREOF” (The Regents of the University of California, priority 2024, published 2025).
Where a SMILES comes first, the peptide text is derived from it. [ ]: non-standard residue; d: D form. The star is where a group is joined. Tyr(3-NO2) = N[C@@H](Cc1ccc(O)c([N+](=O)[O-])c1)C(=O)O; Trp(6-Cl) = N[C@@H](Cc1c[nH]c2cc(Cl)ccc12)C(=O)O; Trp(5-OH) = N[C@@H](Cc1c[nH]c2ccc(O)cc12)C(=O)O; Trp(5-F) = N[C@@H](Cc1c[nH]c2ccc(F)cc12)C(=O)O; Trp(7-Me) = Cc1cccc2c(C[C@H](N)C(=O)O)c[nH]c12; Phe(4-Cl) = N[C@@H](Cc1ccc(Cl)cc1)C(=O)O; Phe(4-F) = N[C@@H](Cc1ccc(F)cc1)C(=O)O; 4Pal = N[C@@H](Cc1ccncc1)C(=O)O; Pip = O=C(O)[C@@H]1CCCCN1; ClAc = O=C(CCl)*

Legend:
[1] = target: T1, Pin1 (Homo sapiens, UniProt Q13526); test: Denaturation thermal shift assay (SYPRO Orange); assay type: binding; parameters: human Pin1 (residues 1-163); made in house; host or cells: E. coli BL21 (DE3) gold pLysS
From the text: (§1) Important to the success of structure activity relations studies, robust biochemical, biophysical, and cell-based assays were implemented that enabled rapid and iterative evaluations of test Pin1 targeting agents. First, the DELFIA (Dissociation-enhanced lanthanide fluorescent immunoassay) assay platform was used to derive a robust heterogeneous assay to monitor the ability of test agents to displace the binding between Pin1 and the D-Peptide (Table 1), which was obtained in a biotinylated form (FIG. 10). […] Second, for an orthogonal biophysical assay denaturation thermal shift measurements were used. Pin1 was incubated with vehicle control (buffer with 1% DMSO), or test agents at protein: ligand ratio of 1:2 (20 μM protein-40 μM compound) for 10 min at 10° C. in the presence of the fluorescent dye SYPRO Orange. The samples were gradually exposed to increasing temperature (linear gradient from 10° C. to 95° C.), causing the protein to unfold. This unfolding allowed the fluorescent dye to bind to the protein's exposed hydrophobic residues, resulting in an increase in fluorescence. The thermal shift assay measures the protein's melting temperature (Tm), which is the temperature at which the protein denatures by 50%. Ligands can affect a protein target to thermal denaturation, which could manifest in a positive or negative shift in the protein denaturation temperature (ΔTm) (Bai N, Roder H, Dickson A, & Karanicolas J (2019) Scientific Reports 9; and Kranz J K & Schalk-Hihi C (2011) Fragment-Based Drug Design: Tools, Practical Approaches, and Examples 493:277-298). Using these two assays, a series of commercially available Pin1 inhibitors were profiled (Table 1). The non-covalent agent D-peptide resulted only moderately active, with an IC50 value of ˜3 μM that closely resembled the dissociation constant for this agent determined via isothermal titration calorimetry, and the ˜ 3 μM IC50 value as reported by a fluorescence polarization assay (Pinch B J, et al. (2020) Nat Chem Biol 16(9):979-987). […] (Table 1) was observed.
Thermal shift assays for Pin1 alone and in the presence of the inhibitors were obtained with a BioRad CFX Connect Real-Time PCR Detection System. Each data point was collected in quadruplicate. Each sample was prepared using buffer 50 mM Phosphate pH 7.5, 150 mM NaCl, 1% DMSO. Protein: ligand ratio used was 1:2 (20 μM protein-40 μM compound), and SYPRO Orange was used. Incubation of the Pin1 protein with the compounds was performed at 10° C. for 10 min. Samples were then heated from 10 to 95° C. with heating increments of 0.05° C., over 30 min. Fluorescence intensity was measured within the excitation/emission ranges 470-505/540-700 nm.

[2] = target: T1, Pin1; test: DELFIA displacement assay (displacement of biotinylated D-peptide from 6His-Pin1); assay type: binding; parameters: human Pin1 (residues 1-163); made in house; host or cells: E. coli BL21 (DE3) gold pLysS
From the text: as §1
For the reported covalent agents such as sulfopin (Dubiella C, et al. (2021) Nat Chem Biol 17(9):954-963), BJP-07-017-3 (Pinch B J, et al. (2020) Nat Chem Biol 16(9):979-987), or KPT-6566 (Campaner E, et al. (2017) Nat Commun 8:15772), a 6-h pre-incubation period was included in the DELFIA assay to allow the covalent reaction to take place. For those agents, IC50 values that fell in the low nanomolar range were observed, consistent with what was reported previously for those compounds. […] To make those determinations in a broader panel of cancer cell lines three pancreatic cancer cell lines, BxPC3, MIA-PaCa-2, and PANC-1, the breast cancer cell line MDA-MB-231, the prostate cancer cell line PC3, and the non-small cell lung cancer cell line A549 were chosen. Each cell line represents various states of KRAS activating mutations (for example BxPC3 is wt-KRAS, while MIAPaCa2 carries the KRAS(G12C) mutation, and the PANC-1 the KRAS(G12D) (Miquel M, Zhang S, & Pilarsky C (2021) Front Cell Dev Biol 9:748631), A549 is KRAS(G12S) (Wang H, et al. (2019) EBioMedicine 49:106-117), MDA-MB-231 is KRAS(G13D) (Kim R K, et al. (2015) Exp Mol Med 47(1):e137), PC3 is wt-KRAS (Bouali S, et al. (2009) Oncol Rep 21(3):731-735). Pin1 protein levels in these cell lines were established using a specific Pin1 antibody in western blot analyses (FIG. 1A). The data confirmed that all these selected human cancer cell lines expressed a significant level of Pin1 (FIG. 1A).
Each well of 96-well streptavidin-coated plates (PerkinElmer) was incubated with 100 μL of 200 nM biotinylated D-peptide for 2 h and washed 3 times with a wash solution (PerkinElmer). Subsequently, a mixture containing Pin1, and a serial dilution of the test compounds were pre-incubated for 6 h. Eu-N1-labeled anti-6x-His antibody (PerkinElmer, 1:2000) was then added to this mixture and further incubated in the biotinylated D-peptide-bound plates for another 2 h. […]

[3] = Table 3, two peaks observed, likely incomplete complex formation
[4] = Table 3, single transition, ± SE of four replicates
[5] = Table 4, single transition, ± SE of four replicates

T1 sequence (Q13526 whole entry, the tested form may be a part): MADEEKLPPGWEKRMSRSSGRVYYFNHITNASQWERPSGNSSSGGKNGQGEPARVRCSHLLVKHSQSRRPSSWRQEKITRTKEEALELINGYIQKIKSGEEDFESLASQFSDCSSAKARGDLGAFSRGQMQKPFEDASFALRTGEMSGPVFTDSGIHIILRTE

Structure (SMILES)	IC50 ([2]; Table 3, ± SD from duplicates) [nM]	ΔTm (° C.) [1, 4] [°C]	ΔTm (° C.) [1, 5]	IC50 ([2]; Table 4, ± SD from duplicates) [nM]	other results
O=C(CCl)N[C@@H](Cc1ccccc1)C(=O)N1CCCC[C@H]1C(=O)NCCc1c[nH]c2ccc(F)cc12 [158G7]	1040 ± 316	–	–	–	share of first thermal shift peak ([1]; Table 3, percentage in brackets after first ΔTm): 50%; share of second thermal shift peak ([1]; Table 3, percentage in brackets after second ΔTm): 50%; ΔTm (° C.), first of two peaks [1, 3]: −0.45 ± 0.15 °C; ΔTm (° C.), second printed of two peaks [1, 3]: −14.28 ± 0.28 °C
NC(=O)[C@H](Cc1c[nH]c2ccccc12)NC(=O)[C@@H]1CCCCN1C(=O)[C@H](Cc1c[nH]c2ccccc12)NC(=O)CCl [158G9] (HELM PEPTIDE1{[O=C(CCl)[*:2]].W.[O=C([C@@H]1CCCCN1[*:1])[*:2]].W.[am]}$$$$V2.0)	44 ± 8	−9.42 ± 0.18	–	–	IC50 ([2]; running text and figure legends): 43 nM
NC(=O)[C@H](Cc1c[nH]c2ccccc12)NC(=O)[C@@H]1CCCCN1C(=O)[C@H](Cc1ccc(O)c([N+](=O)[O-])c1)NC(=O)CCl [158G10] (ClAc-[Tyr(3-NO2)]-[Pip]-Trp-NH2)	183 ± 12	−10.44 ± 0.17	–	–	–
NC(=O)[C@H](Cc1c[nH]c2ccccc12)NC(=O)[C@@H]1CCCCN1C(=O)[C@H](Cc1ccc(F)cc1)NC(=O)CCl [158G11] (ClAc-[Phe(4-F)]-[Pip]-Trp-NH2)	146 ± 12	−10.57 ± 0.11	–	–	–
NC(=O)[C@H](Cc1c[nH]c2ccccc12)NC(=O)[C@@H]1CCCCN1C(=O)[C@H](Cc1ccc(Cl)cc1)NC(=O)CCl [158G12] (ClAc-[Phe(4-Cl)]-[Pip]-Trp-NH2)	527 ± 38	–	–	–	ΔTm (° C.) ([1]; Table 5, only one transition given): −12.19 ± 0.07 °C
NC(=O)[C@H](Cc1c[nH]c2ccccc12)NC(=O)[C@@H]1CCCCN1C(=O)[C@H](Cc1ccncc1)NC(=O)CCl [158H1] (ClAc-[4Pal]-[Pip]-Trp-NH2)	99 ± 4	−9.18 ± 0.07	–	–	–
NC(=O)[C@H](Cc1c[nH]c2ccccc12)NC(=O)[C@@H]1CCCCN1C(=O)[C@H](Cc1c[nH]c2ccc(O)cc12)NC(=O)CCl [158H3] (ClAc-[Trp(5-OH)]-[Pip]-Trp-NH2)	–	–	−6.56 ± 0.04 °C	56 ± 5	–
COc1ccc(C[C@H](NC(=O)CCl)C(=O)N2CCCC[C@H]2C(=O)N[C@@H](Cc2c[nH]c3ccccc23)C(N)=O)cc1 [158H5] (ClAc-Tyr(Me)-[Pip]-Trp-NH2)	82.4 ± 0.4	−9.82 ± 0.08	–	–	–
Cc1cccc2c(C[C@H](NC(=O)CCl)C(=O)N3CCCC[C@H]3C(=O)N[C@@H](Cc3c[nH]c4ccccc34)C(N)=O)c[nH]c12 [158H7] (ClAc-[Trp(7-Me)]-[Pip]-Trp-NH2)	–	–	−10.11 ± 0.20 °C	91 ± 9	–
NC(=O)[C@H](Cc1c[nH]c2ccccc12)NC(=O)[C@@H]1CCCCN1C(=O)[C@H](Cc1c[nH]c2ccc(F)cc12)NC(=O)CCl [158H8] (ClAc-[Trp(5-F)]-[Pip]-Trp-NH2)	–	–	−9.81 ± 0.16 °C	43.5 ± 0.8	–
NC(=O)[C@H](Cc1c[nH]c2cc(Cl)ccc12)NC(=O)[C@@H]1CCCCN1C(=O)[C@H](Cc1c[nH]c2ccccc12)NC(=O)CCl [158H12] (ClAc-Trp-[Pip]-[Trp(6-Cl)]-NH2)	–	–	−9.21 ± 0.08 °C	31 ± 1	–
Cc1cccc2c(C[C@H](NC(=O)[C@@H]3CCCCN3C(=O)[C@@H]3Cc4c([nH]c5ccccc45)CN3C(=O)CCl)C(N)=O)c[nH]c12 [164A11]	–	–	+10.45 ± 0.07 °C	–	–
